Reference: US20050130986A1, “Treatment of spondylarthropathies” (priority 2003, published 2005)
“Also recorded” adds a separate entry of the source. Values belong to the compound of their own block, whether it stands above or below them.

Assays:
[1] = tested on: patient with severe spondyloarthropathy; assay: Findings in a patient with severe spondyloarthropathy (Example 1, 18 month treatment); assay type: in vivo, human; conditions: for efficacy of previous anti-rheumatic medication: patient history, used alone and in various combinations
Description: The patient is a person who has radiologically verified bilateral sacroilitis and disease of large joints. They are also positive for the HLA-B27 antigen. The patient fulfills the ESSG criteria and the Amor criteria for spondylarthorpathy. […] In addition they have had symptoms also in small peripheral joints such as fingers and toes. […] The previous anti-rheumatic medication has included methotrexate, cyclosporine, infliximab, intramusclar.
During the study the vital signs and blood chemistry was controlled first weekly, then biweekly and after three months once per month.
No corticosteroid injections are given.

[2] = tested on: patient with psoriasis arthropathy
spondylarthropathy = conditions: cited from earlier work; for efficacy observed in spondylarthropathy: mainly in the treatment of peripheral arthritis

Compound: infliximab
efficacy of previous anti-rheumatic medication [1]: inefficient

infections during the treatment ([1]; 18 months of treatment): no significant infections
Compound: Cc1ccc(NC(=O)c2ccc(CN3CCN(C)CC3)cc2)cc1Nc1nccc(-c2cccnc2)n1 [study drug, 4-[(4-methyl-1-piperazin-1-ylmethyl)-N-[4-methyl-3-[4-(3-pyridinyl)-2-pyrimidinyl]amino]phenyl]benzamide Monomethanesulfonate]
swollen joint count ([1]; after 18 month treatment, 31 before treatment, oral, up to 400 mg per day, added to hydroxychloroquine, prednisone, ibuprofen): 5 | side effects ([1]; after 18 months of treatment): no serious side effects have been observed; also recorded: slight dryness of the skin | health assessment questionnaire score (HAQ) ([1]; after 18 months of treatment, 1.5 before treatment, high score = high disability): 0.75 | time after start at which antirheumatic effect could be observed (movements in shoulder joints improved) ([1]; after study drug was started): two | CRP ([1]; after the treatment (18 months), 42 mg/L before treatment): 11 mg/L | tender joint count ([1]; after the treatment (18 months), 10 before treatment): 1 | erythrocyte sedimentation rate ([1]; after the treatment (18 months), 28 mm/h before treatment): 11 mm/h | pain experienced by the patient, visual analogue scale (VAS) ([1]; after treatment (18 months), 37 mm before treatment): 11 mm | disease activity as estimated by the patient (VAS) ([1]; after treatment (18 months), 69 mm before treatment): 11 mm | side effects or infections during the treatment ([2]; 3 month study): No serious side effects or infections; also recorded: slight tiredness and mild muscle cramps | number of swollen joints ([2]; after three month treatment, from 5, oral, up to 400 mg per day, added to naproxen, injected joints omitted): 2 | BASDAI score ([2]; after three month treatment, from 6.5): 3.1 | number of tender joints ([2]; after three month treatment, from 10): 0 | general pain (VAS) ([2]; after three month treatment, from 33 mm): 12 mm | night pain experienced by the patient (VAS) ([2]; after three month treatment, from 34 mm): 4 mm | ESR ([2]; after three month treatment, from 40): 12 | disease activity (VAS) ([2]; after three month treatment, from 41 mm): 23 mm | CRP ([2]; after three month treatment, from 47): 25

Compound: CN(Cc1cnc2nc(N)nc(N)c2n1)c1ccc(C(=O)N[C@@H](CCC(=O)O)C(=O)O)cc1 [methotrexate, reference compound]
efficacy of previous anti-rheumatic medication [1]: inefficient | efficacy in sporiasis arthropathy (spondylarthropathy; in vivo): some efficacy | efficacy observed in spondylarthropathy (spondylarthropathy): minor efficacy | efficacy of previous anti-rheumatic therapy ([2]; patient history, methotrexate 20 mg per week, cyclosporine 150 mg, discontinued): lack of efficacy

Compound: Cc1oncc1C(=O)Nc1ccc(C(F)(F)F)cc1 [leflunomide, reference compound]
efficacy of previous anti-rheumatic medication [1]: inefficient

Compound: O=C(O)c1cc(/N=N/c2ccc(S(=O)(=O)Nc3ccccn3)cc2)ccc1O [sulfasalazine]
efficacy observed in spondylarthropathy (spondylarthropathy): minor efficacy

Compound: Cn1cnc([N+](=O)[O-])c1Sc1ncnc2nc[nH]c12 [azathioprine, reference compound]
efficacy of previous anti-rheumatic medication [1]: inefficient
